Measured values as given in EP4653431A1, “PYRAZOLE DERIVATIVE, AND PHARMACEUTICALLY ACCEPTABLE SALT, STEREOISOMER, PHARMACEUTICAL COMPOSITION AND USE THEREOF” (Starg (Wuhan) Pharmaceutical Technology Co., Ltd, priority 2023, dated 2024).
Structures can show the parent of a compound that is named as a salt.

What was measured:
[1] = molecular target: T1, CDK2/cyclin E1 (Homo sapiens, UniProt P24941); assay: In vitro CDK2/cyclinE enzyme activity assay (TR-FRET); type: biochemical; details: CDK2/cyclin E1, 1 mM ATP, 120 min at 25 °C
T1 construct: purchased SignalChem
Experimental: CDK2/cyclin E1 was purchased from SignalChem. Ulight-4E-BP1 peptide, Eu-anti-phospho-tyrosine antibody, and 1X detection buffer solution were purchased from PerkinElmer. High-purity adenosine triphosphate (ATP) was purchased from Promega. Ethylenediaminetetraacetic acid (EDTA) was purchased from Sigma. Nivo multimode plate reader (PerkinElmer) was used.
Preparation of Kinase Buffer Solution: The kinase buffer solution consisted 50 mM HEPES, 1 mM EDTA, 10 mM MgCl2, and 0.01% Brij-35, with pH of 7.4. 2.38 g HEPES, 58 mg EDTA, 406 mg MgCl2, and 20 mg Brij-35 were added to 200 mL buffer, and the pH was adjusted to 7.4.
The stop solution was prepared by mixing 100 µL of 1 M EDTA stock solution with […] of 1X detection buffer solution and 1725 µL of distilled water.
The enzyme, Ulight-4E-BP1 peptide, ATP, and the inhibitor were diluted using the kinase buffer solution. The Eu-anti-phospho-tyrosine antibody was diluted to a concentration of 8 nM/L using the detection buffer solution. The test compound was serially diluted 5-fold using a multichannel pipette to the 8th concentration, i.e., from 4 µM to 0.0512 nM. The final concentration of DMSO was 4%, and the experiment was set up with duplicate wells. 2.5 µL of each gradient concentration of the inhibitor, 5 µL of CDK2/cyclin E1 enzyme (10 ng), and 2.5 µL of a mixture of substrate and ATP (4 mM ATP, 100 nM Ulight-4E-BP1 peptide) were added to a microplate, resulting in a final concentration gradient of the compound from 1 µM to 0.0128 nM, with final ATP and substrate concentrations of 1 mM and 25 nM, respectively. The reaction system was incubated at 25 °C for 120 minutes. After the reaction, 5 µL of the stop solution was added to each well, and further reacted at 25 °C for 5 minutes to terminate the reaction. Then 5 µL of Eu-anti-phospho-tyrosine antibody dilution was added to each well, and the mixture was reacted at 25 °C for 60 minutes. Data were collected using the PerkinElmer Nivo multimode plate reader in TR-FRET mode (excitation wavelength: 320 nm; emission wavelengths: 615 nm and 665 nm).
The raw data were converted to inhibition rates according to the equation (Sample-Min)/(Max-Min)×100%. The IC50 value was obtained by fitting the data to a four-parameter curve (using log(inhibitor) vs. response -- Variable slope model in GraphPad Prism).

[2] = system: Human Ovarian Cancer OVCAR-3 Cell Subcutaneous Xenograft Tumor; assay: In vivo pharmacodynamic (efficacy) study in OVCAR-3 subcutaneous xenograft tumor model; details: oral, BID*21 days, OVCAR-3 xenograft in CB17-SCID mice
Experimental: Cell Culture: OVCAR-3 cells (human ovarian cancer cell line, sourced from Medsyin's cell bank) were cultured in RPMI-1640 medium (ATCC modified, Gibco) supplemented with 20% FBS (Gibco) and 1% penicillin/streptomycin (P.S.), in vitro at 37 °C with 5% CO2. The cells were passaged twice weekly. OVCAR-3 cells in the exponential growth phase were collected and resuspended in a mixture of PBS and Matrigel (Corning) to prepare a cell suspension with a concentration of 5×10^7 cells/mL for mouse inoculation. The volume ratio of PBS to Matrigel was 1:1.
Animals: CB17-SCID mice, female, 6-8 weeks old, weighing 18-21 grams. A total of 40 mice were inoculated. The mice were provided by Shanghai Lingchang Biotechnology Co., Ltd.
Tumor Inoculation: Each mouse was subcutaneously injected in the right flank with 0.2 mL of OVCAR-3 tumor cells (10×10^6 cells).
Experimental Metrics: The experimental metrics aimed to evaluate whether tumor growth was inhibited, delayed, or cured. The tumor diameter was measured twice weekly using a vernier caliper. The tumor volume was calculated using the formula: V=0.5a×b^2, where a and b represent the longest and shortest diameters of the tumor, respectively.
Antitumor metric TGI (%) reflects the tumor growth inhibition rate. TGI (%) was calculated as follows: TGI (%) = [(1 - (average tumor volume at the end of drug administration in a given group - average tumor volume at the start of drug administration in that group)) / (average tumor volume at the end of treatment in a vehicle control group - average tumor volume at the start of treatment in the vehicle control group)] × 100%.

[3] = Pharmacokinetic study, oral and intravenous administration in mice; parameters: species or system ICR mice; details: male, ICR, mouse, in vivo
Experimental: This study used ICR male mice as test animals. The plasma concentrations of the test compounds and the reference compound in mice were quantitatively determined at different time points using the LC-MS/MS method following intravenous injection or oral administration to evaluate the pharmacokinetic characteristics of the test compounds in mice.
ICR mice (male, 20-30 g, 6-8 weeks old, Beijing Charles River).
A clear solution of the test compound was administered to ICR mice (fasted overnight or fed) via tail vein injection or oral gavage. For intravenous injection, blood samples (50 µL) were collected via cheek puncture at 0 h (pre-dose) and at 0.083, 0.25, 0.5, 1, 2, 4, 6, 8, and 24 h post-dose into anticoagulant tubes containing sodium heparin. The mixtures were thoroughly vortexed at 4 °C and centrifuged at 6000 rpm for 3 minutes. For oral gavage, blood samples were collected via cheek puncture at 0 h (pre-dose) and at 0.083, 0.25, 1, 2, 4, 6, 8, and 24 h post-dose into anticoagulant tubes containing sodium heparin. The mixtures were vortexed thoroughly, and centrifuged at 6000 rpm for 3 minutes. Plasma drug concentrations were determined using the LC-MS/MS method. Pharmacokinetic parameters were calculated using Phoenix WinNonlin 8.2.0 pharmacokinetic software with a non-compartmental model and linear-logarithmic trapezoidal rule.

IC50 [1]	bioavailability [3]	AUC(0-t) ([3]; iv, 5 mg/kg)	Vd ([3]; iv, 5 mg/kg)	clearance ([3]; iv, 5 mg/kg)	half-life ([3]; iv, 5 mg/kg)	AUC(0-t) ([3]; po, 30 mg/kg)	Cmax ([3]; po, 30 mg/kg)	Tmax ([3]; po, 30 mg/kg)	Structure (SMILES)	TGI ([2]; 35 mg/Kg)	TGI ([2]; 70 mg/Kg)	TGI ([2]; 140 mg/Kg)
4.1 nM	–	–	–	–	–	–	–	–	CON(C)Cc1nn2ccnc(Nc3cc([C@H]4CC[C@@H](OC(=O)NC(C)C)C4)[nH]n3)c2c1C [Formate salt of compound 2]	104.1%	114.1%	114.6%
6.8 nM	129%	6770 ng·h/mL	7.58 L/kg	13 mL/min/kg	6.48 h	52600 ng·h/mL	22100 ng/mL	0.19 h	CONCc1nn2ccnc(Nc3cc([C@H]4CC[C@@H](OC(=O)NC(C)C)C4)[nH]n3)c2c1F [Compound 5]	–	–	–
7.4 nM	196%	13200 ng·h/mL	0.52 L/kg	6.35 mL/min/kg	0.93 h	155000 ng·h/mL	41100 ng/mL	1.08 h	CON(C)Cc1nn2ccnc(Nc3cc([C@H]4CC[C@@H](OC(=O)NC(C)C)C4)[nH]n3)c2c1F [Compound 6]	–	–	–
